Values joined by “and” are separate entries in the source; they are usually repeats but may differ in a detail not shown here. Identical values can stand only once. Toxic doses and inconclusive results are not listed. Where a SMILES comes first, the peptide text is derived from it. [ ]: non-standard residue; d: D form. The star is where a group is joined. Cbz = O=C(OCc1ccccc1)*; Nva = CCC[CH](N)C(=O)O

This is an account of results in PubChem BioAssay AID200 (DTP/NCI, 2004).

In the experiment the test system is B6C3F1 mice, B16 melanoma ip, median survival T/C. Description: NCI In Vivo Anticancer Drug Screen. Data for tumor model B16 Melanoma (intraperitoneal) in B6C3F1 mice. The settings on record: endpoint: median survival time, schedule: Q01DX009 (ip), higher = longer survival. An outline of the steps: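 Readout: survival or tumor size in treated mice relative to vehicle controls (T/C). Model uses transplantable tumors grown in mice.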

The mark [1] stands for this setting: dose: 25.0 mg/kg/injection, vehicle: Klucel (hydroxypropylcellulose) (HPC).
The mark [2] stands for this setting: dose: 25.0 mg/kg/injection, vehicle: saline.
Setting [3] is: dose: 50.0 mg/kg/injection, vehicle: Klucel (hydroxypropylcellulose) (HPC).
Setting [4] is: dose: 50.0 mg/kg/injection, vehicle: saline.
[5] abbreviates: dose: 100.0 mg/kg/injection, vehicle: Klucel (hydroxypropylcellulose) (HPC).
The mark [6] stands for this setting: dose: 100.0 mg/kg/injection, vehicle: saline.
Setting [7] is: dose: 200.0 mg/kg/injection, vehicle: Klucel (hydroxypropylcellulose) (HPC).
Where [8] appears, read: dose: 200.0 mg/kg/injection, vehicle: saline.
[9] abbreviates: dose: 400.0 mg/kg/injection, vehicle: Klucel (hydroxypropylcellulose) (HPC).
Where [10] appears, read: dose: 400.0 mg/kg/injection, vehicle: saline with Tween-80.
The mark [11] stands for this setting: dose: 12.5 mg/kg/injection, vehicle: saline with Tween-80.
Where [12] appears, read: dose: 25.0 mg/kg/injection, vehicle: saline with Tween-80.
Setting [13] is: dose: 50.0 mg/kg/injection, vehicle: saline with Tween-80.
The mark [14] stands for this setting: dose: 100.0 mg/kg/injection, vehicle: saline with Tween-80.
The mark [15] stands for this setting: dose: 200.0 mg/kg/injection, vehicle: saline with Tween-80.
Where [16] appears, read: dose: 3.12 mg/kg/injection, vehicle: Klucel (hydroxypropylcellulose) (HPC).
The mark [17] stands for this setting: dose: 6.25 mg/kg/injection, vehicle: Klucel (hydroxypropylcellulose) (HPC).
Setting [18] is: dose: 12.5 mg/kg/injection, vehicle: saline.
Where [19] appears, read: dose: 12.5 mg/kg/injection, vehicle: Klucel (hydroxypropylcellulose) (HPC).

In the case of `N=c1nc2n(cc1F)[C@@H]1O[C@H](CO)[C@@H](O)[C@@H]1O2`, the T/C reads like this: under setting [1], 111 % of control; under setting [2], 110 % of control; under setting [3], 121 % of control; under setting [4], 112 % of control; under setting [5], 110 % of control; under setting [6], 117 % of control and 97 % of control. The T/C under setting [7] is 104 % of control; the T/C under setting [8] was 124 % of control and 105 % of control; the T/C under setting [9] was 117 % of control; the T/C (dose: 400.0 mg/kg/injection, vehicle: saline) was 121 % of control.

As for `CC(=O)Oc1[nH]c(=O)c2cccc3c2c1CCC3`, the T/C under setting [10] is 120 % of control.

As to `O=[N+]([O-])O.O=[N+]([O-])O.[NH-]C1CCCCC1[NH-].[Pt+2]` (centres undefined), the T/C is, setting by setting: (dose: 0.25 mg/kg/injection, vehicle: other) 123 % of control; (dose: 1.0 mg/kg/injection, vehicle: other) 163 % of control.

For `Cc1ccc(N=Nc2c(O)ccc3n[nH]nc23)cc1`, the T/C was 94 % of control under setting [1], 96 % of control under setting [3] and 114 % of control under setting [5].

Consider `CN(C)CCN1C(=O)c2cccc3cc([N+](=O)[O-])cc(c23)C1=O`, for which the T/C runs as follows: (dose: 0.37 mg/kg/injection, vehicle: saline with Tween-80) 105 % of control; (dose: 0.75 mg/kg/injection, vehicle: saline with Tween-80) 107 % of control; (dose: 1.5 mg/kg/injection, vehicle: saline with Tween-80) 112 % of control; (dose: 1.56 mg/kg/injection, vehicle: saline with Tween-80) 117 % of control; (dose: 3.0 mg/kg/injection, vehicle: saline with Tween-80) 102 % of control; (dose: 12.0 mg/kg/injection, vehicle: saline with Tween-80) 88 % of control.

In the case of `CC[C@H](CC[C@@H](C)C1CC[C@H]2[C@@H]3CC=C4C[C@@H](OP(=O)(N5CC5)N5CC5)CC[C@]4(C)[C@H]3CC[C@]12C)C(C)C` (some centres undefined), the T/C was 95 % of control and 99 % of control under setting [11]; 110 % of control and 101 % of control under setting [12]; 90 % of control and 97 % of control under setting [13]; 91 % of control and 94 % of control under setting [14]; 93 % of control and 95 % of control under setting [15].

Turning to `Nc1cc(=O)[nH][nH]1`, the T/C is 91 % of control under setting [14], 96 % of control under setting [15] and 98 % of control under setting [10].

For the compound `CNC(=O)/C=C/C1=CN2C(=O)c3ccc(C)c(O)c3NC(OC)C2C1` (centres undefined), the T/C was 109 % of control and 106 % of control (dose: 0.01 mg/kg/injection, vehicle: saline); 109 % of control (dose: 0.02 mg/kg/injection, vehicle: saline); 115 % of control (dose: 0.03 mg/kg/injection, vehicle: saline); 113 % of control and 116 % of control (dose: 0.05 mg/kg/injection, vehicle: saline); 98 % of control (dose: 0.05 mg/kg/injection, vehicle: suspension in saline); 117 % of control and 98 % of control (dose: 0.1 mg/kg/injection, vehicle: saline). For the same compound, the T/C is, setting by setting: (dose: 0.1 mg/kg/injection, vehicle: suspension in saline) 97 % of control; (dose: 0.2 mg/kg/injection, vehicle: saline) 119 % of control.

Turning to `CC(=O)Nc1ccc(C(O)C2=CC(=O)c3ccccc3C2=O)cc1` (centres undefined), the T/C reads like this: under setting [2], 102 % of control; under setting [4], 88 % of control; under setting [6], 94 % of control.

`CCCC(=O)OCC1OC(n2cnc3c(=S)nc(N)[nH]c32)C(OC(=O)CCC)C1OC(=O)CCC` (centres undefined): the T/C reads like this: (dose: 0.78 mg/kg/injection, vehicle: Klucel (hydroxypropylcellulose) (HPC)) 103 % of control; (dose: 1.56 mg/kg/injection, vehicle: Klucel (hydroxypropylcellulose) (HPC)) 104 % of control; under setting [16], 110 % of control; under setting [17], 114 % of control.

Take `C/C(=N\NC(=O)c1ccccc1O)c1cccc(/C(C)=N/NC(=O)c2ccccc2O)n1`: the T/C (dose: 3.0 mg/kg/injection, vehicle: saline) was 102 % of control and the T/C (dose: 6.0 mg/kg/injection, vehicle: saline) is 96 % of control.

As for `CCCC(NC(=O)OCc1ccccc1)C(=O)NC(CO)C(=O)O` (centres undefined) (Cbz-[Nva]-Ser-OH; configuration not given here), the T/C runs as follows: under setting [5], 102 % of control; under setting [7], 100 % of control; under setting [9], 103 % of control.

Regarding `CC(C)(C)OC(=O)NC(CC(=O)O)C(=O)O` (centres undefined), the T/C runs as follows: under setting [4], 102 % of control; under setting [6], 90 % of control; under setting [8], 96 % of control.

As for `CCS(=O)(=O)OCCCCOS(=O)(=O)CC`, the T/C under setting [12] is 97 % of control and the T/C under setting [13] was 100 % of control.

As for `CC(=O)/C=C\c1ccc(Cl)cc1`, the T/C was 107 % of control under setting [18], 103 % of control under setting [2] and 103 % of control under setting [4].

On to `CC(C)CC(NC(=O)CN)C(=O)O` (centres undefined), for which the T/C by setting is: under setting [14], 101 % of control; under setting [15], 95 % of control; under setting [10], 97 % of control.

Take `COc1c(CNC(=O)CCl)cc2[nH]c(C)cc2c1CNC(=O)CCl`: the T/C is 104 % of control under setting [19], 105 % of control under setting [1] and 116 % of control under setting [5].

Take `O=C(Nc1nncs1)c1ccncc1`: the T/C under setting [11] is 108 % of control, the T/C under setting [12] was 102 % of control and the T/C under setting [13] was 92 % of control.

With `C[C@H](CCC[C@H](C)OS(=O)(=O)c1ccccc1)OS(=O)(=O)c1ccccc1`, the T/C runs as follows: under setting [11], 122 % of control and 101 % of control; under setting [12], 207 % of control and 97 % of control; under setting [10], 194 % of control.

Turning to `O=[N+]([O-])c1c(O)c(CNCCCO)cc(CNCCCO)c1O`, the T/C (dose: 6.25 mg/kg/injection, vehicle: saline) was 102 % of control and the T/C under setting [18] is 102 % of control.

As to `COc1ccc2c(c1)/C(=C/CCN(C)C)c1ccccc1S2`, the T/C was 101 % of control under setting [18], 101 % of control under setting [2] and 101 % of control under setting [4].

Turning to `CCc1nc(N)nc(N)c1-c1ccc(Cl)c(Cl)c1.[Cl][Pd][Cl]`, the T/C (dose: 3.12 mg/kg/injection, vehicle: saline) is 114 % of control.

With `Cc1ccc2c(c1)C1(C)OC(C=CC1=O)O2` (centres undefined), the T/C is 104 % of control under setting [16]; 115 % of control under setting [17]; 104 % of control under setting [19]; 112 % of control and 105 % of control under setting [1].

For `CC(C)(C)C(=O)CC(=O)C(F)(F)C(F)(F)C(F)(F)F.CC(C)(C)C(=O)CC(=O)C(F)(F)C(F)(F)C(F)(F)F.CC(C)(C)C(=O)CC(=O)C(F)(F)C(F)(F)C(F)(F)F.[Er]`, the T/C runs as follows: (dose: 12.5 mg/kg/injection, vehicle: saline + alcohol) 105 % of control; (dose: 25.0 mg/kg/injection, vehicle: saline + alcohol) 118 % of control; (dose: 50.0 mg/kg/injection, vehicle: saline + alcohol) 109 % of control; (dose: 100.0 mg/kg/injection, vehicle: saline + alcohol) 111 % of control.
